Drawing on patent publication US20230371511A1, “MIXTURES CONTAINING CYCLOBUTRIFLURAM” (BASF SE, priority 2020, published 2023), this text covers Observed efficacy for eight compounds.

Holding throughout (type): cell-based
What all share (conditions): single active, 7 days after inoculation

One test concerns Rhizoctonia solani. Briefly: Microtest: activity against Rhizoctonia solani (MTP growth, 405 nm). As to the method:
(§1) The active compounds were formulated separately as a stock solution having a concentration of 10000 ppm in dimethyl sulfoxide.
The stock solutions were mixed according to the ratio, pipetted onto a micro titer plate (MTP) and diluted with water to the stated concentrations. A spore suspension of Rhizoctonia solani in an aqueous biomalt or yeast-bactopeptone-glycerine or COB solution was then added. The plates were placed in a water vapor-saturated chamber at a temperature of […]. Using an absorption photometer, the MTPs were measured at 405 nm 7 days after the inoculation.
(§2) The measured parameters were compared to the growth of the active compound-free control variant (100%) and the fungus-free blank value to determine the relative growth in % of the pathogens in the respective active compounds.
(§3) These percentages were converted into efficacies.
(§4) An efficacy of 0 means that the growth level of the pathogens corresponds to that of the untreated control; an efficacy of 100 means that the pathogens were not growing.
(§5) The expected efficacies of active compound mixtures were determined using Colby's formula [R. S. Colby, “Calculating synergistic and antagonistic responses of herbicide combinations”, Weeds 15, 20-22 (1967)] and compared with the observed efficacies.

Test [1] has as its system Colletotrichum orbiculare. Briefly: Microtest: activity against anthracnose caused by Colletotrichum orbiculare (MTP growth, 405 nm).
From the text: as §1, §2, §3
The stock solutions were mixed according to the ratio, pipetted onto a micro titer plate (MTP) and diluted with water to the stated concentrations. A spore suspension of Colletotrichum orbiculare in an aqueous bio malt solution was then added. The plates were placed in a water vapor-saturated chamber at a temperature of 18° C. Using an absorption photometer, the MTPs were measured at 405 nm 7 days after the inoculation.
as §4, §5

A further test relates to Cercospora sojina. Briefly: Microtest: activity against Cercospora sojina (MTP growth, 405 nm). The procedure: as §1
The stock solutions were mixed according to the ratio, pipetted onto a micro titer plate (MTP) and diluted with water to the stated concentrations. A spore suspension of Cercospora sojina in an aqueous biomalt or yeast-bactopeptone-glycerine or COB solution was then added. The plates were placed in a water vapor-saturated chamber at a temperature of 18° C. Using an absorption photometer, the MTPs were measured at 405 nm 7 days after the inoculation.
as §2, §3, §4, §5

Another test relates to Septoria tritici. Briefly: Microtest: activity against leaf blotch on wheat caused by Septoria tritici (MTP growth, 405 nm). The procedure: as §1
The stock solutions were mixed according to the ratio, pipetted onto a micro titer plate (MTP) and diluted with water to the stated concentrations. A spore suspension of Septoria tritici in an aqueous biomalt or yeast-bactopeptone-glycerine or DOB solution was then added. The plates were placed in a water vapor-saturated chamber at a temperature of 18° C. Using an absorption photometer, the MTPs were measured at 405 nm 7 days after the inoculation.
as §2, §3, §4, §5

A further test has as its system Alternaria solani. Briefly: Microtest: activity against early blight caused by Alternaria solani (MTP growth, 405 nm).
From the text: as §1, §2, §3
The stock solutions were mixed according to the ratio, pipetted onto a micro titer plate (MTP) and diluted with water to the stated concentrations. A spore suspension of Alternaria solani in an aqueous biomalt or yeast-bactopeptone-glycerine or DOB solution was then added. The plates were placed in a water vapor-saturated chamber at a temperature of 18° C. Using an absorption photometer, the MTPs were measured at 405 nm 7 days after the inoculation.
as §4, §5

Setting [2] is: 0.25 ppm, 0 = growth as untreated control, 100 = no growth.

Take `O=C(NC1CCC1c1ccc(Cl)cc1Cl)c1cccnc1C(F)(F)F` (stereo in doubt) [Cyclobutrifluram, cyclobutrifluram]: the Observed efficacy came to 0 with Rhizoctonia solani (1 ppm); 1 in test [1] (1 ppm); 18 with Cercospora sojina (0.016 ppm); 0 with Septoria tritici (0.063 ppm); 7 with Septoria tritici (setting [2]); 40 in the test on Alternaria solani (0.004 ppm). Also, the Observed efficacy in the test on Alternaria solani (0.016 ppm) came to 74.
Take `Cn1cc(C(=O)Nc2ccccc2-c2cc(F)c(F)c(F)c2)c(C(F)F)n1` [Fluxapyroxad, fluxapyroxad]: the Observed efficacy in the test on Rhizoctonia solani (0.25 ppm) is 46.
As for `Cc1nc2c(F)c(F)ccc2cc1Oc1cccc(F)c1C(C)(C)O` [Ipflufenoquin, ipflufenoquin], the Observed efficacy in test [1] (0.25 ppm) is reported as 25; in the test with Alternaria solani (0.004 ppm), 9.
As for `COCC(=O)N(c1c(C)cccc1C)[C@H](C)C(=O)OC` [Mefenoxam, mefenoxam], the Observed efficacy was 6 in the test with Septoria tritici (0.063 ppm), 4 in the test with Septoria tritici (1 ppm) and 2 with Septoria tritici (4 ppm).
As to `CC(O)(Cn1cncn1)c1ccc(Oc2ccc(Cl)cc2)cc1C(F)(F)F` (stereo not drawn) [Mefentrifluconazol, mefentrifluconazole], the results for the Observed efficacy with Septoria tritici (0 ppm (so in the source)), in the test on Septoria tritici (0.063 ppm) and with Septoria tritici (setting [2]) were 68, 61 and 70, respectively.
On to `Cc1cc(C(F)(F)F)nn1CC(=O)N1CCC(c2nc(C3=NOC(c4c(F)cccc4F)C3)cs2)CC1` (stereo not drawn) [Oxathiapirolin, oxathiapiprolin], for which the Observed efficacy with Alternaria solani (0.063 ppm) came to 0.
Same read-out and setting: to `Cn1nnnc1/C(=N\OCc1cccc(NC(=O)OC(C)(C)C)n1)c1ccccc1` [Picarbutrazox, picarbutrazox] belongs 8.
Take `CON(C(=O)c1cn(C)nc1C(F)F)C(C)Cc1c(Cl)cc(Cl)cc1Cl` (stereo not drawn) [Pydiflumetofen, pydiflumetofen]: the figures for the Observed efficacy with Cercospora sojina (0.00025 ppm), in the test on Septoria tritici (0.004 ppm) and in the test on Septoria tritici (0.016 ppm) were 9, 5 and 23, respectively.
